Experimental data taken from patent US6677326B2 (Arakis, Ltd., priority 1999, dated 2004).

Experiments:
[1] = BNF 37 March 1999; non-chronotherapeutic; cited from earlier work
[2] = Proposed equivalent dose in chronotherapeutic administration; conditions: proposed clinical dose
[3] = human, in vivo, 1.25 mg
C-reactive protein (CRP) = assay: Same study: serum C-reactive protein at 08.30; format: in vivo, patients
Description: (§1) Serological: Serum samples were obtained at 08.30, kept on ice for up to 1 hour, separated and stored at −70° C. to measure: C-reactive protein (CRP); IL-6 concentration; IL-6 soluble receptor (IL-6sR) concentration; hyaluronate (HA) concentration.

IL-6 = assay: Same study: serum IL-6 concentration at 08.30; format: in vivo, patients
Description: as §1

[4] = tested on: patients with rheumatoid arthritis; assay: Assessor-blind study of prednisolone 1 mg and 5 mg given at 02.00: clinical outcomes; format: in vivo; conditions: for More or Less (arthritis worse: -1 morning, 0 equal, +1 afternoon) / Pain (VAS) / Painful Joints (tender joint count, n=28) / Swollen Joints (swollen joint count, n=28) / Cln Opn (clinician opinion of condition, VAS) / EMS (morning stiffness) / Pt Opn (patient opinion of condition, VAS): mean; for Pain (VAS) / Painful Joints (tender joint count, n=28) / Swollen Joints (swollen joint count, n=28): 08.30; for Cln Opn (clinician opinion of condition, VAS) / EMS (morning stiffness) / Pt Opn (patient opinion of condition, VAS): 12.00
Description: Patients stayed the night in hospital but were free to be up and about and to leave the hospital during the day. […] Blood samples and clinical assessments were made at 08.30 and further clinical assessments related to symptoms on the day of drug administration at 12.00 and 08.30 the following day (except the final day when this last assessment was made before departure from the hospital). […] Patients went home on Friday afternoon but returned the following Monday to repeat the procedure. […] The patient and assessor were not aware of which dose was given.
Clinical: Outcome was measured at 08.30 each day for: swollen joint count (n=28); tender joint count (n=28); pain (0.100 mm, VAS). Outcome was measured at 12.00 each day for: morning stiffness (minutes); patient opinion of condition (0-100 mm, VAS); clinician opinion of condition (0-100 mm, VAS). Outcome was measured the following day for: whether the arthritis was worse in the morning or afternoon on the previous day (−1 morning, 0 equal, +1 afternoon).
The assessor was not aware of the treatment order allocation (and probably remained blind), but no placebo tablets were used and it was possible for a patient to be un-blind.
Informed consent was obtained and the patient prescription written by a doctor not associated with trial evaluation. Medication was dispensed at 2 a.m. on each treatment day after gently waking the patient. The patient was encouraged to settle back to sleep immediately.
On the morning before medication and on each morning on the day of medication, blood samples were taken at 8.30 a.m. and outcome assessments recorded then, and at noon, as indicated above.
Symptoms, signs and laboratory results were compared within and between patients, but the main assessment was visual inspection of the overall pattern of response. Means and standard deviations were used to define variation rates and for calculating trial size for future studies. An overall assessment of practicality and the potential for more frequent (but smaller volume) blood taking was made by discussion amongst the staff and patients involved.
This patient's assessments have been included normally in the first week, but in the second week they have been used differently.

hyaluronate (HA) = assay: Same study: serum hyaluronate concentration at 08.30; format: in vivo, patients; parameters: unit not given beside the values; conditions: mean, serum 08.30
rheumatoid arthritis = conditions: daily dosage of 7.5 mg; Kirwan 1995; cited from earlier work
[5] = BNF 37 March 1999; cited from earlier work
[6] = Dose 1 mg at 02.00, Day 1, mean, serum 08.30
[7] = Dose 1 mg at 02.00, Day 2, mean, serum 08.30
[8] = Dose 1 mg at 02.00, Day 3, mean, serum 08.30
[9] = Dose 5 mg at 02.00, Day 11, mean, serum 08.30
[10] = Dose 5 mg at 02.00, Day 12, mean, serum 08.30
[11] = Dose 5 mg at 02.00, Day 13, mean, serum 08.30
[12] = 1 mg prednisolone, three patients

**Q.** What does the source list for CC(=O)OCC(=O)[C@@]1(O)CC[C@H]2[C@@H]3CCC4=CC(=O)CC[C@]4(C)[C@H]3C(=O)C[C@@]21C [cortisone acetate]?
**A.** Dose equal to 5 mg prednisolone (Normal dosing) [1]: 25 mg; Equivalent dose in chronotherapeutic administration, equal to 1 mg prednisolone [2]: 5 mg

**Q.** Which results are given for CC(=O)OCC(=O)[C@@]12N=C(C)O[C@@H]1C[C@H]1[C@@H]3CCC4=CC(=O)C=C[C@]4(C)[C@H]3[C@@H](O)C[C@@]12C [deflazacort]?
**A.** Dose equal to 5 mg prednisolone (Normal dosing) [1]: 6 mg; Equivalent dose in chronotherapeutic administration, equal to 1 mg prednisolone [2]: 1.2 mg

**Q.** Which “Dose equal to 5 mg prednisolone (Normal dosing)” value (from here on “Dose equal to 5 mg prednisolone”) [1] does the source give for C[C@]12CCC(=O)C=C1CC[C@@H]1[C@@H]2[C@@H](O)C[C@@]2(C)[C@H]1CC[C@]2(O)C(=O)CO [hydrocortisone] here?
**A.** 20 mg

**Q.** What about the “Equivalent dose in chronotherapeutic administration, equal to 1 mg prednisolone” value (“Equivalent dose” below) [2] of the same compound?
**A.** 4 mg

**Q.** Which results are given for C[C@]12C=CC(=O)C=C1CC[C@@H]1[C@@H]2[C@@H](O)C[C@@]2(C)[C@H]1CC[C@]2(O)C(=O)CO [prednisolone]?
**A.** time to Cmax or Tmax [3]: 1 to 3 h; CRP (C-reactive protein (CRP); 1 mg prednisolone): tendency for reduction; CRP (C-reactive protein (CRP); 5 mg prednisolone): reduced significantly; CRP (C-reactive protein (CRP); [6]): 35.5; CRP (C-reactive protein (CRP); [7]): 31.2; CRP (C-reactive protein (CRP); [8]): 25.8; CRP (C-reactive protein (CRP); [9]): 36.6; CRP (C-reactive protein (CRP); [10]): 31.1; CRP (C-reactive protein (CRP); [11]): 19.1; IL-6 (IL-6; 1 mg prednisolone): tendency for reduction; IL-6 (IL-6; 5 mg prednisolone): reduced significantly; IL-6 (IL-6; [6]): 28.1; IL-6 (IL-6; [7]): 31.1; IL-6 (IL-6; [8]): 22.8; IL-6 (IL-6; [9]): 30.3; IL-6 (IL-6; [10]): 18.5; IL-6 (IL-6; [11]): 13.8; EMS [4, 12]: statistically significantly reduced; Pain [4, 12]: statistically significantly reduced; clinician's opinion [4, 12]: statistically significantly reduced; patient's opinion [4, 12]: statistically significantly reduced; Overall results compared with Arvidson et al. ([4]; 5 mg prednisolone at 02.00): well within the range of findings published by Arvidson et al.; More or Less (arthritis worse: -1 morning, 0 equal, +1 afternoon) ([4]; Dose 1 mg at 02.00, Day 1): −0.7; Pain (VAS) ([4]; Dose 1 mg at 02.00, Day 1): 26.0 mm; Painful Joints (tender joint count, n=28) ([4]; Dose 1 mg at 02.00, Day 1): 20.0; Swollen Joints (swollen joint count, n=28) ([4]; Dose 1 mg at 02.00, Day 1): 18.7; Cln Opn (clinician opinion of condition, VAS) ([4]; Dose 1 mg at 02.00, Day 1): 28.7 mm; EMS (morning stiffness) ([4]; Dose 1 mg at 02.00, Day 1): 55.0 min; Pt Opn (patient opinion of condition, VAS) ([4]; Dose 1 mg at 02.00, Day 1): 23.7 mm; More or Less (arthritis worse: -1 morning, 0 equal, +1 afternoon) ([4]; Dose 1 mg at 02.00, Day 2): −0.7; Pain (VAS) ([4]; Dose 1 mg at 02.00, Day 2): 20.3 mm; Painful Joints (tender joint count, n=28) ([4]; Dose 1 mg at 02.00, Day 2): 20.3; Swollen Joints (swollen joint count, n=28) ([4]; Dose 1 mg at 02.00, Day 2): 18.7; Cln Opn (clinician opinion of condition, VAS) ([4]; Dose 1 mg at 02.00, Day 2): 29.3 mm; EMS (morning stiffness) ([4]; Dose 1 mg at 02.00, Day 2): 51.7 min; Pt Opn (patient opinion of condition, VAS) ([4]; Dose 1 mg at 02.00, Day 2): 26.7 mm; More or Less (arthritis worse: -1 morning, 0 equal, +1 afternoon) ([4]; Dose 1 mg at 02.00, Day 3): 0.0; Pain (VAS) ([4]; Dose 1 mg at 02.00, Day 3): 16.7 mm; Painful Joints (tender joint count, n=28) ([4]; Dose 1 mg at 02.00, Day 3): 20.3; Swollen Joints (swollen joint count, n=28) ([4]; Dose 1 mg at 02.00, Day 3): 18.3; Cln Opn (clinician opinion of condition, VAS) ([4]; Dose 1 mg at 02.00, Day 3): 16.3 mm; EMS (morning stiffness) ([4]; Dose 1 mg at 02.00, Day 3): 40.0 min; Pt Opn (patient opinion of condition, VAS) ([4]; Dose 1 mg at 02.00, Day 3): 12.7 mm; More or Less (arthritis worse: -1 morning, 0 equal, +1 afternoon) ([4]; Dose 5 mg at 02.00, Day 11): −0.3; Pain (VAS) ([4]; Dose 5 mg at 02.00, Day 11): 19.7 mm; Painful Joints (tender joint count, n=28) ([4]; Dose 5 mg at 02.00, Day 11): 19.0; Swollen Joints (swollen joint count, n=28) ([4]; Dose 5 mg at 02.00, Day 11): 18.0; Cln Opn (clinician opinion of condition, VAS) ([4]; Dose 5 mg at 02.00, Day 11): 27.7 mm; EMS (morning stiffness) ([4]; Dose 5 mg at 02.00, Day 11): 30.0 min; Pt Opn (patient opinion of condition, VAS) ([4]; Dose 5 mg at 02.00, Day 11): 19.3 mm; More or Less (arthritis worse: -1 morning, 0 equal, +1 afternoon) ([4]; Dose 5 mg at 02.00, Day 12): −0.3; Pain (VAS) ([4]; Dose 5 mg at 02.00, Day 12): 15.7 mm; Painful Joints (tender joint count, n=28) ([4]; Dose 5 mg at 02.00, Day 12): 19.7; Swollen Joints (swollen joint count, n=28) ([4]; Dose 5 mg at 02.00, Day 12): 17.3; Cln Opn (clinician opinion of condition, VAS) ([4]; Dose 5 mg at 02.00, Day 12): 15.7 mm; EMS (morning stiffness) ([4]; Dose 5 mg at 02.00, Day 12): 20.0 min; Pt Opn (patient opinion of condition, VAS) ([4]; Dose 5 mg at 02.00, Day 12): 11.7 mm; More or Less (arthritis worse: -1 morning, 0 equal, +1 afternoon) ([4]; Dose 5 mg at 02.00, Day 13): −0.7; Pain (VAS) ([4]; Dose 5 mg at 02.00, Day 13): 16.0 mm; Painful Joints (tender joint count, n=28) ([4]; Dose 5 mg at 02.00, Day 13): 19.7; Swollen Joints (swollen joint count, n=28) ([4]; Dose 5 mg at 02.00, Day 13): 14.0; Cln Opn (clinician opinion of condition, VAS) ([4]; Dose 5 mg at 02.00, Day 13): 11.7 mm; EMS (morning stiffness) ([4]; Dose 5 mg at 02.00, Day 13): 33.3 min; Pt Opn (patient opinion of condition, VAS) ([4]; Dose 5 mg at 02.00, Day 13): 13.3 mm; HA (hyaluronate (HA); Dose 1 mg at 02.00, Day 1): 241.9; HA (hyaluronate (HA); Dose 1 mg at 02.00, Day 2): 320.3; HA (hyaluronate (HA); Dose 1 mg at 02.00, Day 3): 372.5; HA (hyaluronate (HA); Dose 5 mg at 02.00, Day 11): 322.5; HA (hyaluronate (HA); Dose 5 mg at 02.00, Day 12): 339.5; HA (hyaluronate (HA); Dose 5 mg at 02.00, Day 13): 193.9; Efficacy in rheumatoid arthritis (rheumatoid arthritis): effective

**Q.** For C[C@]12C=CC(=O)C=C1CC[C@H]1[C@@H]3C[C@@H](O)[C@](O)(C(=O)CO)[C@@]3(C)C[C@H](O)[C@@]12F [triamcinolone], which “Dose equal to 5 mg prednisolone” value [1] is on record?
**A.** 4 mg

**Q.** And the “Broadly similar dose in nasal administration” value [5]?
**A.** 110 µg

**Q.** What about the “Equivalent dose” value [2] of the same compound?
**A.** 0.8 mg

**Q.** For methyl prednisone, which “Dose equal to 5 mg prednisolone” value [1] is on record?
**A.** 4 mg

**Q.** And the “Equivalent dose” value [2]?
**A.** 0.8 mg
